Entries after “also recorded” stand apart in the source; their conditions may differ.
Key:
[1] = tested on: glutathione peroxidase (GPx); test: Activity and expression of glutathione peroxidase in rat tongue mitochondria; type: in vivo; settings: irradiated rats
Experimental: (§1) For topical administration in the oral cavity, the composition used was a hydrogel (gel) that comprised 1%, 3% or 5% melatonin (1, 3 or 5 grams of melatonin in 100 ml of the final volume of the composition, respectively) and in which 20% polyethylene and polypropylene copolymers were used as a gelling substance. Pluronic® F127 (poloxamer) was used as the polyethylene and polypropylene copolymers. 0.3% sodium benzoate was used as a preservative. 0.5% sweet orange essence was used. All the components used were acquired from FAGRON IBERICA, S.A.U., reference numbers: melatonin, 33457-27; Pluronic® F127, 33353-SP; sodium benzoate, 31360-12; orange essence, 30620-08. The chemical structure of melatonin is shown below: […]
(§2) […]

[2] = tested on: mucositis caused by radiotherapy; test: Macroscopic appearance of rat tongue / mucositis after irradiation; type: in vivo; settings: irradiated rats
Experimental: For topical administration in the oral cavity, the composition used was a hydrogel (gel) that comprised 1%, 3% or 5% melatonin (1, 3 or 5 grams of melatonin in 100 ml of the final volume of the composition, respectively) and in which 20% polyethylene and polypropylene copolymers were used as a gelling substance. Pluronic® F127 (poloxamer) was used as the polyethylene and polypropylene copolymers. 0.3% sodium benzoate was used as a preservative. 0.5% sweet orange essence was used. All the components used were acquired from FAGRON IBERICA, S.A.U., reference numbers: melatonin, 33457-27; Pluronic® F127, 33353-SP; sodium benzoate, 31360-12; orange essence, 30620-08. The chemical structure of melatonin is shown below:
(§3) The animals used in experiments were rats weighing 280 g, and they were subjected to ionizing radiations under controlled conditions in the Experimental Radiology Unit at the Biomedical Research Center in the University of Granada. The animals were subjected to full exposure of 50 grays (Gy). The irradiation dose used each day was 10 Gy administered at 100.75 cGy/min, 210 kilovolts (kV) and 12 milliamperes (mA), and placing the animal 40 cm away from the radiation source.
The different formulations were applied to the animals as follows. A topical application was applied in the oral cavity before irradiation, another one after, and successive applications were applied every 8 hours for 21 days. […] The formulations used in the animals used in experiments were as follows: Pluronic F-127 gel with 1%, 3% or 5% melatonin (1, 3 or 5 grams of melatonin/100 ml gel, respectively), applied three times a day topically in the oral cavity at a volume of 500 μl/each time, giving a total of 1.5 ml/day. Topical application in the oral cavity means that the animals ingest the gel applied in the buccal cavity.
The experiments were also conducted by administering to the animals the same melatonin concentration as that used with the 3% w/v hydrogel, but by intraperitoneal route, to see if plasma melatonin could reduce mucositis or if it is necessary to apply said molecule by topical route. For the parenteral route, an isotonic solution that comprised 70% v/v (volume/volume) of isotonic saline solution and 30% v/v of propylene glycol, measured in relation to the total volume of the solution, was used. A daily dose of 45 mg of melatonin was injected for 21 days. The animals were sacrificed 21 days after starting irradiation, like the animals treated with melatonin gel applied by topical route in the oral cavity.

[3] = Melatonin levels in rat tongue mitochondria; type: in vivo; settings: irradiated rats; parenteral (i.p.) 45 mg a day
Source text: as §3
(§4) The different formulations were applied to the animals as follows. A topical application was applied in the oral cavity before irradiation, another one after, and successive applications were applied every 8 hours for 21 days. […]
as §2

[4] = tested on: mitochondrial respiratory chain complexes CI, CIII, CIV and CV; test: Expression of mitochondrial respiratory chain complexes in rat tongue by Western blot; type: in vivo; settings: irradiated rats; i.p. 45 mg a day for 21 days
Source text: as §3, §4, §2

[5] = tested on: glutathione reductase (GRd); test: Activity and expression of glutathione reductase in rat tongue mitochondria; type: in vivo; settings: irradiated rats; i.p. 45 mg a day for 21 days
Experimental: as §1, §2

glutathione = test: Glutathione levels (GSH, GSSG, GSSG/GSH) in tongue mitochondria of irradiated rats; type: in vivo, rat; settings: i.p. 45 mg a day for 21 days, compared with 3% gel topical
Experimental: as §1, §2

mitochondria = test: Electron microscopy of rat tongue mitochondria; type: in vivo; settings: irradiated rats; parenteral route
Source text: as §3, §4, §2

[6] = in vivo; cited from earlier work
[7] = tested on: fibrosis and angiogenesis between the muscle fibers of the tongue; test: Histology of rat tongue (hematoxylin-eosin, Masson Goldner's trichrome); type: in vivo; settings: irradiated rats treated with melatonin (both treatments: 3% gel topical and parenteral) versus irradiated animals
Source text: as §3, §4, §2

COc1ccc2[nH]cc(CCNC(C)=O)c2c1 [melatonin, N-acetyl-5-methoxytryptamine]
activity and expression of GPx ([1]; 3% w/v gel topical in the oral cavity, 45 mg a day): partially counteract the effect of irradiation | activity and expression of GPx ([1]; i.p. 45 mg a day for 21 days): partially counteract the effect of irradiation | minimum effective dose for treating mucositis, daily dose ([2]; 3% gel applied three times a day, 500 μl in each application): 45 mg | macroscopic tongue lesions (morphological appearance of the tongue) ([2]; 3% w/v gel, topical application in the oral cavity): completely normalizes the morphological appearance of the tongue | minimum effective dose for treating mucositis, melatonin concentration in the gel ([2]; gel applied three times a day, 500 μl in each application): 3% | mucositis caused by radiotherapy (macroscopic tongue lesions) ([2]; gel topical in the oral cavity, three times a day, 21 days): complete prevention of mucositis | macroscopic tongue lesions / mucositis ([2]; parenteral (i.p.) 45 mg a day for 21 days): unable to restore tongue lesions after irradiation; also recorded: no benefit whatsoever | melatonin levels in the tongue [3]: not restored | expression of complex V or ATP synthase [4]: completely unable to restore the expression of complex V | activity and expression of GRd [5]: unable to restore the enzyme | GSSG/GSH ratio in tongue mitochondria (glutathione): higher GSSG/GSH ratio | restoring GSH and reducing GSSG in tongue mitochondria (glutathione): lower efficacy | mitochondrial damage by electron microscopy (broken mitochondria) (mitochondria): broken mitochondria are observed | half-life [6]: 30 min | fibrosis and angiogenesis between the muscle fibers of the tongue [7]: decrease in fibrosis and in angiogenesis
